Reference: patent publication US9265268B2, “Method of handling bananas” (priority 2009, dated 2016)

Assays:
bananas [1] = test: Example 1: bananas bagged at harvest, shipped, ethylene-ripened, exposed 12 hr to MCP, stored at approx. 20° C.; sugar spots, color, shelf life; format: in vivo, Musa; parameters: key to Sugar Spot Ratings: 0 = no spots, 1 = few, 2 = moderate, 3 = severe spots (group average)
Text: Each cluster of bananas was rated daily for sugar spots. Clusters were rated using the following scale:
0=no spots; 1=few spots; 2=moderate spots; 3=severe spots
Clusters with rating of 0-1 are commercially desirable to consumers. Clusters with ratings of 2-3 are unacceptable to consumers. In the results below, the average rating for all the clusters in a given treatment group is reported.
The color of banana peels is rated according to a seven stage rating scale: stage 1 (dark green); stage 2 (all light green); stage 3 (half green and half yellow); stage 4 (more yellow than green); stage 5 (green tips and necks); stage 6 (all yellow; maybe light green necks, no green tips); stage 7 (yellow flecked with brown). Consumers generally prefer to eat bananas in stage 5 or stage 6.
Bananas were harvested in Columbia and placed in bags. Three types of bags were used: • (1) non-MAP polymeric film bag, sized to hold 18 kg of bananas (“poly liner”). Each bag has two or more holes, each with diameter of approximately 20 mm or larger. • (2) non-MAP polymeric film bag with 44 large holes (hole diameter 10 mm), sized to hold 1.4 kg of bananas (“T-bag”); and • (3) MAP bag (as described above), sized to hold about 1.4 kg of bananas.
The appropriate weight of bananas was placed in each type of bag after harvest and prior to shipment. Bags were placed in standard cardboard carrying devices. Bananas then were shipped to Philadelphia, Pa., where they were exposed to ethylene using a standard 4 day ripening schedule. Standard commercial methods of shipment and exposure to ethylene were used.
The Test Protocol that was used was as follows. 312 MAP bags were packed. Each bag held approximately 1.4 kg (3 lb) of bananas. Thirteen such bags were packed in each box. Total weight of bananas in MAP bags was approximately 432 kg. Approximately 216 kg of bananas were placed into poly liners, which were placed into boxes identical to those used for the MAP bags. Approximately 216 kg of bananas were placed into T bags, which were placed into boxes identical to those used for the MAP bags. The gross fruit weight of the each box was approximately 19.5 kg (43 lb).
Banana heads (industry nomenclature is rasimo) were harvested at 14 weeks of age (typical for US markets). Heads were cut into large, medium and small hands. The hands were washed in chlorinated water tanks. The washed hands were further broken into clusters. Clusters were packed into bags that each held approximately 1.4 kg (3 lb) or bags that each held approximately 18 kg (40 lb). Bags were placed into standard cardboard boxes, and each box held approximately 18-20 kg. Each box had 8 round holes of diameter 40 mm, plus two larger oval holes that also served as hand-holds for carrying.
The MAP-packaged bananas were packaged as follows: Clusters of approximately 1.4 kg were carefully placed into microperforated bags, and the bags were sealed by twisting the open side of the bag, folding down the twisted end, and placing a rubber band around the twisted and folded end of the bag.
All bananas were quickly cooled to 13.3° C. and held at that temperature for shipping. During shipping, air ventilation was approximately 15%.
Bags were not opened during shipping or ripening. Temperature was monitored in some of the bags by placing a temperature probe in one banana in that bag prior to sealing.
Bananas were ripened in forced-air ripening rooms as follows. On day 1, bananas were kept at 18° C. (64° F.) and exposed to exogenous ethylene (150 ppm for 24 hours). No further exogenous ethylene was used. After day 1, bananas were kept at 18° C. for two days and then at 10° C. for one day. The temperatures given are pulp temperatures and not room temperatures. Humidity was 85% to 95%.
Bananas were then shipped to Spring House, Pa. Bananas arrived at color stage 2.5-3. The bananas were randomly divided into treatment sets as follows: […]

bananas [2] = test: Example 2X: evaluation process X (extended storage at 14° C.); format: in vivo, Musa; conditions: non-zero 1-MCP
Text: Bananas were harvested at 13 weeks of age. Fruit bunches were separated into hands, then washed, and excess latex was removed in chlorinated water tanks using standard commercial practices. The washed hands of bananas were further broken into clusters and treated with fungicide. Clusters were placed into plastic bags; each bag held approximately 1.4 kg (3 lbs) of bananas. The bananas remained in these bags until they were removed for evaluation (see below).
At day 5 at approximately 4 pm, the bananas had reached color stage 2.5 to 3.5. Treatment groups PE-3-C, PE-10-C, MAP-3, and MAP-10 were then exposed to 1-MCP overnight at the concentrations shown above.
Some of the bananas from each group described in Example 2 were evaluated by process “X” as follows: After treatment groups PE-3-C, PE-10-C, MAP-3, and MAP-10 received exposure to 1-MCP, the bananas remained in their bags and were held at approximately 14° C. The bananas were inspected daily while they remained in the bags.

In the case of `CC1=CC1` [1-MCP, 1-methylcyclopropene], the additional shelf life (bananas [1]; 1-MCP alone (no MAP)) is reported as 1 to 2 days, the “Sugar Spot Ratings” value (bananas [1]; MAP, 300 ppb MCP, Day 0) is reported as 0 and the “Sugar Spot Ratings” value (bananas [1]; MAP, 300 ppb MCP, Day 1) is reported as 0. For the same molecule, the “Sugar Spot Ratings” value (bananas [1]; MAP, 300 ppb MCP, Day 2) was 0.00, the “Sugar Spot Ratings” value (bananas [1]; MAP, 300 ppb MCP, Day 3) was 0.19 and the “Sugar Spot Ratings” value (bananas [1]; MAP, 300 ppb MCP, Day 4) was 0.53. For the same molecule, the “Sugar Spot Ratings” value (bananas [1]; MAP, 300 ppb MCP, Day 5) was 0.92, the “Sugar Spot Ratings” value (bananas [1]; MAP, 300 ppb MCP, Day 6) was 1.61 and the “Sugar Spot Ratings” value (bananas [1]; MAP, 1000 ppb MCP, Day 0) was 0. The “Sugar Spot Ratings” value (bananas [1]; MAP, 1000 ppb MCP, Day 1) was 0, the “Sugar Spot Ratings” value (bananas [1]; MAP, 1000 ppb MCP, Day 2) was 0.11 and the “Sugar Spot Ratings” value (bananas [1]; MAP, 1000 ppb MCP, Day 3) was 0.22. The “Sugar Spot Ratings” value (bananas [1]; MAP, 1000 ppb MCP, Day 4) was 0.56, the “Sugar Spot Ratings” value (bananas [1]; MAP, 1000 ppb MCP, Day 5) was 1.56 and the “Sugar Spot Ratings” value (bananas [1]; MAP, 1000 ppb MCP, Day 6) was 1.89. The “Sugar Spot Ratings” value (bananas [1]; T bags, 300 ppb MCP, Day 0) was 0, the “Sugar Spot Ratings” value (bananas [1]; T bags, 300 ppb MCP, Day 1) was 0 and the “Sugar Spot Ratings” value (bananas [1]; T bags, 300 ppb MCP, Day 2) was 0. For the same molecule, the “Sugar Spot Ratings” value (bananas [1]; T bags, 300 ppb MCP, Day 3) was 0.94, the “Sugar Spot Ratings” value (bananas [1]; T bags, 300 ppb MCP, Day 4) was 2.44 and the “Sugar Spot Ratings” value (bananas [1]; T bags, 300 ppb MCP, Day 5) was 2.78. For the same molecule, the “Sugar Spot Ratings” value (bananas [1]; T bags, 1000 ppb MCP, Day 0) was 0, the “Sugar Spot Ratings” value (bananas [1]; T bags, 1000 ppb MCP, Day 1) was 0 and the “Sugar Spot Ratings” value (bananas [1]; T bags, 1000 ppb MCP, Day 2) was 0. For the same molecule, the “Sugar Spot Ratings” value (bananas [1]; T bags, 1000 ppb MCP, Day 3) was 0.44, the “Sugar Spot Ratings” value (bananas [1]; T bags, 1000 ppb MCP, Day 4) was 2.06 and the “Sugar Spot Ratings” value (bananas [1]; T bags, 1000 ppb MCP, Day 5) was 2.61. For the same molecule, the “visual quality maintained beyond the standard handling method” value (bananas [1]; combined treatment 1-MCP and MAP) was 10 days, the “Sugar Spot Ratings” value (bananas [1]; poly liner, 300 ppb MCP, Day 0) was 0 and the “Sugar Spot Ratings” value (bananas [1]; poly liner, 300 ppb MCP, Day 1) was 0. For the same molecule, the “Sugar Spot Ratings” value (bananas [1]; poly liner, 300 ppb MCP, Day 2) was 0.06, the “Sugar Spot Ratings” value (bananas [1]; poly liner, 300 ppb MCP, Day 3) was 0.33 and the “Sugar Spot Ratings” value (bananas [1]; poly liner, 300 ppb MCP, Day 4) was 2.17. The “Sugar Spot Ratings” value (bananas [1]; poly liner, 300 ppb MCP, Day 5) was 2.89, the “Sugar Spot Ratings” value (bananas [1]; poly liner, 1000 ppb MCP, Day 0) was 0 and the “Sugar Spot Ratings” value (bananas [1]; poly liner, 1000 ppb MCP, Day 1) was 0. For the same molecule, the “Sugar Spot Ratings” value (bananas [1]; poly liner, 1000 ppb MCP, Day 2) was 0.00, the “Sugar Spot Ratings” value (bananas [1]; poly liner, 1000 ppb MCP, Day 3) was 0.33 and the “Sugar Spot Ratings” value (bananas [1]; poly liner, 1000 ppb MCP, Day 4) was 2.67. The “Sugar Spot Ratings” value (bananas [1]; poly liner, 1000 ppb MCP, Day 5) was 2.89, the acceptability of bananas (bananas [2]; MAP bags, day number 17 after treatment, held at 14° C.) was “still acceptable” and the “onset of sugar spots” value (bananas [2]; MAP bags, held in bags at 14° C.) was “showed a delay in the onset of sugar spots”. For the same molecule, the “additional time bananas remained acceptable after removal from MAP bags” value (bananas [2]; after 17 days at 14° C., stored at approx. 22° C.) was “three”.
